Laboratory results reported in US9538774B2, “Method of feeding livestock to improve carcass characteristics” (Value-Added Science & Technology, LLC., priority 2012, dated 2017).
“Also recorded” adds a separate entry of the source.

Legend:
[1] = tested on: commercial finishing pigs; test: Example 2 feeding study: CPFA with and without ractopamine in a 40% DDGS diet; format: in vivo
Procedure: A second study was conducted to evaluate the effects of supplementation of CPFA, with and without ractopamine, in a diet containing a high level (40%) of DDGS, on growth performance, carcass characteristics, meat and fat quality in commercial finishing pigs. The experimental diets over a six-week feeding period were a control diet without CPFA and a diet containing 0.0375% CPFA for six weeks; then for the last three weeks a diet was fed that included ractopamine at 4.5 grams per ton for each of the control and CPFA diets. (See FIG. 4). CPFA was added to replace choice white grease in the control diet. As discussed below, no treatment effects on growth performance were observed nor for HCW, dressing percentage or loin muscle, ultimate pH, color or marbling.
Pig body weight (BW) on a pen basis was measured initially and at the end of weeks 3 and 6 to calculate average daily gain (ADG). On each weigh day, feed disappearance was measured to calculate average daily feed intake (ADFI) of pigs on pen basis. Pen ADG and ADFI were, in turn, used to calculate feed conversion ratio (F:G).
Pigs were all harvested on the same day and also weighed individually one day before harvest to obtain a final live BW. HCW was measured on carcasses immediately after harvest. Live BW and HCW of pigs were used to calculate dressing percentage using the following equation: dressing %=(HCW/live BW)×100. Backfat (BF) and loin depth (LD) were measured between the 3rd and 4th rib on each carcass using Fat-O-Meater (Generation II). Percentage of fat-free carcass lean was calculated by Fat-O-Meater using the values of backfat depth and loin depth.
One barrow and one gilt from each pen weighing closest to the mean BW of their pen were selected for evaluation of meat and belly fat quality. Twenty-four hours after carcasses were chilled at 4° C., pH of loin muscle (LM) was measured at the 10th rib using a pH meter. The pH meter was calibrated at the temperature of the LM with pH 4 and 7 buffers. After pH measurement, carcasses were fabricated. Loin muscle samples at the 10th rib were collected for evaluation of meat quality.
Each LM sample was separated into two equal halves, and vacuum-packaged and frozen at −20° C. until analysis. One section of LM sample was measured for Minolta color (L*: lightness; a*: redness; b*: yellowness), loin purge, chop purge, and Instron force (a measurement correlated with tenderness and chewiness). Japanese color score (1=extremely pale to 6=extremely dark; NPPC, 2000) and marbling score (1=1% intramuscular fat to 10=10% intramuscular fat; NPPC, 2000) were also determined by trained panelists.
The other section of the LM sample was used for sensory evaluation. Sensory assessment was performed according to the procedure described by the American Meat Science Association (1995). Samples of LM were thawed at 4° C. overnight and cut into chops approximately 1 inch thick. The chops were weighed before and immediately after cooking to determine cooking loss. After cooking, trained panelists evaluated chops for juiciness, tenderness, chewiness, flavor and off-flavor using a 10-point scale (1=extremely dry, tough, not chewy, none, or none, to 10=extremely juicy, tender, chewy, intense, or intense, respectively). […]
To determine the CPFA residue in carcass fat, each of 6 (3 barrows, 3 gilts) belly fat samples from the third section were randomly selected in control and experimental treatments. Samples were sent for analysis of individual CPFA using HPLC according to the method described by Wood (1986).
All data were analyzed using the MIXED procedure of SAS Inst. Inc. (Cary, N.C.). Pen was used as the experimental unit for all responses. The statistical model included the fixed effects of CPFA, ractopamine, CPFA×ractopamine interactions, and random effect of block. Live BW before harvest and sex were used as the covariates in analysis of carcass characteristics, meat and fat quality, if the effects of these covariates were significant (P<0.05). […]

swine = conditions: cited from earlier work
[2] = 40% DDGS diet, CPFA 0.0375% six weeks, ractopamine 4.5 grams per ton last three weeks
[3] = loin muscle, ractopamine 4.5 grams/ton
[4] = ractopamine 4.5 grams per ton last three weeks
[5] = sensory panel, 10-point scale, each additive alone
[6] = sensory panel, ractopamine 4.5 grams/ton
[7] = 10 or 20 ppm for 25 to 41 days pre-slaughter (Carr et. al., 2005)
[8] = 10 ppm for 28 days (Stoller et. al., 2003)
[9] = 10 ppm for 35 days prior to slaughter (Aalhus, et. al., 1990)

What does the source list for CC(CCc1ccc(O)cc1)NCC(O)c1ccc(O)cc1 (centres unmarked) [ractopamine]?
average daily feed intake (ADFI) [1, 2]: affected; average daily gain (ADG) [1, 2]: affected; also recorded: statistically significant positive effects; feed conversion ratio (F:G) [1, 2]: statistically significant positive effects; weight at harvest (final BW) [1, 2]: affected; also recorded: statistically significant positive effects; Instron force of LM samples ([1]; loin muscle, CPFA 0.0375% six weeks, ractopamine 4.5 grams/ton): did affect; also recorded: increase; lightness of LM [1, 3]: did affect; redness (Minolta a*) of LM [1, 3]: did affect; also recorded: reductions; yellowness (Minolta b*) of LM [1, 3]: did affect; also recorded: reductions; back fat [1, 4]: reduction; increase of the measure of carcass lean [1, 4]: 2%; loin depth [1, 4]: increase; carcass lean % ([1]; ractopamine 4.5 grams/ton, effect in words): statistically significant positive effects; juiciness score [1, 5]: Neither CPFA nor ractopamine alone affected; off-flavor score [1, 5]: Neither CPFA nor ractopamine alone affected; chewiness [1, 6]: increased; flavor score [1, 6]: reduction; tenderness [1, 6]: reduced; color scores (swine; [7]): poorer; flavor scores (swine; [7]): reduced; tenderness (swine; [7]): reduced; Instron force of loin muscle (swine; [8]): increased; chewiness score (swine; [8]): increased; color score (swine; [8]): reduced; tenderness score (swine; [8]): reduced; hardness of fat samples taken from the loin (swine; [9]): reduced; sheer force of loin muscle (swine; [9]): increased
